Measurements taken from PMC4774911, “Biochemical Screening of Five Protein Kinases from Plasmodium falciparum against 14,000 Cell-Active Compounds” (PLoS ONE, 2016).
Read-outs that look alike come from different tables or passages of the source.

Tests used:
DD2 [1] = test system: DD2; set-up: method as in downloaded from ChEMBL; conditions: ref downloaded from ChEMBL; cited from earlier work
[2] = target: T1, Plasmodium falciparum calcium-dependent protein kinase 1 (CDPK1) (Plasmodium falciparum, UniProt P62344); experiment: CDPK1 Kinase-Glo ATP-consumption screen and dose-response; type: biochemical; conditions: hits below 1 uM; read-out: CDPK1 IC50
T1 construct: 6-Histidine (N); made in house
How it was run: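 Single-point testing used 1 μM final compound, then dose-response, against CDPK4 and CDPK1 with Syntide-2 (40 μM) as substrate. After 90 min, reactions were halted by 5 mM EGTA, and kinase activity was inferred from depleted ATP via Kinase-Glo luminescence.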

3D7 PFLDH [3] = test system: 3D7 PFLDH; set-up: method as in downloaded from ChEMBL; conditions: ref downloaded from ChEMBL; cited from earlier work
HepG2 cells = conditions: cited from earlier work
P. falciparum 3D7 cells = conditions: cited from earlier work
DD2 [4] = test system: DD2; set-up: method as in F.J. Gamo et al., Nature 2010; conditions: P. falciparum Dd2; downloaded from ChEMBL ref F.J. Gamo et al., Nature 2010; cited from earlier work
[5] = target: T2, Plasmodium falciparum protein kinase 6 (PK6) (Plasmodium falciparum, UniProt Q8IDW1); experiment: biochemical; conditions: hits below 1 uM; read-out: PK6 IC50
T2 construct: 6-Histidine (N); made in house
T2 sequence (Q8IDW1 1-305): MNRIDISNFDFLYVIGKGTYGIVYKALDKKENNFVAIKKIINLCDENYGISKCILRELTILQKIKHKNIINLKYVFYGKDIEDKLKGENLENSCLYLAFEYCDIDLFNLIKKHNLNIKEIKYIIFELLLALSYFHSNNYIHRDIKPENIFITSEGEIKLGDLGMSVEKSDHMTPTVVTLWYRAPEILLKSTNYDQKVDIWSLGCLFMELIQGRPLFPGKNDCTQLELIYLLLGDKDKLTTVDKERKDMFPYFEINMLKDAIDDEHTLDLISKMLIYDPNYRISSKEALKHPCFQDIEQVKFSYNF

3D7 PFLDH [6] = test system: 3D7 PFLDH; set-up: method as in F.J. Gamo et al., Nature 2010; conditions: downloaded from ChEMBL ref F.J. Gamo et al., Nature 2010; cited from earlier work
3D7 PFLDH [7] = test system: 3D7 PFLDH; set-up: method as in F.J. Gamo et al., Nature 2010; concentration or dose not given beside the values; conditions: downloaded from ChEMBL, ref F.J. Gamo et al., Nature 2010; cited from earlier work
DD2 [8] = test system: DD2; set-up: method as in F.J. Gamo et al., Nature 2010; conditions: downloaded from ChEMBL, ref F.J. Gamo et al., Nature 2010; cited from earlier work
[9] = HEPG2, ref downloaded from ChEMBL
[10] = 3D7, ref downloaded from ChEMBL
[11] = P. falciparum 3D7, downloaded from ChEMBL ref F.J. Gamo et al., Nature 2010
[12] = HepG2, downloaded from ChEMBL, ref F.J. Gamo et al., Nature 2010
[13] = 3D7, downloaded from ChEMBL, ref F.J. Gamo et al., Nature 2010

T1 sequence (P62344 whole entry): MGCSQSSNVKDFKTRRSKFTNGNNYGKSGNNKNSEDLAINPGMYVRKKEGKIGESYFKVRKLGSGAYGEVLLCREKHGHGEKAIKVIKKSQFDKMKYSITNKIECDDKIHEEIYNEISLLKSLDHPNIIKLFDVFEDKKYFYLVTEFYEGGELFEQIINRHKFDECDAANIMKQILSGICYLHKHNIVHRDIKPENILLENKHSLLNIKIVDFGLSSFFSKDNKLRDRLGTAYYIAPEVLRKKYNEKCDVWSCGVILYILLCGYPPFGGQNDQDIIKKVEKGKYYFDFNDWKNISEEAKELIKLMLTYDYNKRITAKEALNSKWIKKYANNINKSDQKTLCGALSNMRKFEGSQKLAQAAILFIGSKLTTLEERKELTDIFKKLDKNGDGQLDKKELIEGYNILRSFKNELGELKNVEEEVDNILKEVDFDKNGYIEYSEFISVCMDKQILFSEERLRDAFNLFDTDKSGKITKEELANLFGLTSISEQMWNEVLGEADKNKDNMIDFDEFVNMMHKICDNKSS

IC50 [2]	IC50 [5]	Compound	PCT_INHB_DD2 (DD2 [1])	PCT_INHIB_3D7_PFLDH (3D7 PFLDH [3])	PCT_INHIB_HEPG2 (HepG2 cells; [9])	PCT_IHB_3D7 (P. falciparum 3D7 cells; [10])	pXC50_3D7 (P. falciparum 3D7 cells; [10])	PCT_INHB_DD2 (DD2 [4])	PCT_INHIB_HEPG2 (HepG2 cells; HepG2 cells, downloaded from ChEMBL ref F.J. Gamo et al., Nature 2010)	PCT_IHB_3D7 (P. falciparum 3D7 cells; [11])	pXC50_3D7 (P. falciparum 3D7 cells; [11])	PCT_INHIB_3D7_PFLDH (3D7 PFLDH [6])	PCT_INHIB_3D7_PFLDH (3D7 PFLDH [7])	PCT_INHB_DD2 (DD2 [8])	PCT_INHIB_HEPG2 (HepG2 cells; [12])	PCT_IHB_3D7 (P. falciparum 3D7 cells; [13])	pXC50_3D7 (P. falciparum 3D7 cells; [13])
145 nM		COc1cc2nccc(Nc3ccc(Oc4ccccc4)cc3)c2cc1OC.Cl [TCMDC-131917]	99	0	13	100	6.165										
145 nM	133 nM	CNC(=O)c1ccccc1Nc1nc(Nc2cccc(CS(C)(=O)=O)c2)ncc1C.O=CO [TCMDC-133809]											0%	95%	74%	97%	6.2733
58 nM	80 nM	Cl.NC(=O)c1ccccc1Nc1nc(Nc2cccc(N3CCN(CCO)CC3)c2)ncc1Cl [TCMDC-134114]											1%	98%	93%	95%	7.402
89 nM	61 nM	COc1ccc(Nc2ncc(C#N)c(Nc3ccccc3C(N)=O)n2)cc1N1CCN(C)CC1.Cl [TCMDC-134117]											0%	97%	56%	93%	6.867
45 nM	143 nM	CNC(=O)c1ccccc1Nc1nc(Nc2ccc(N3CCN(C)CC3)nc2)ncc1C.Cl [TCMDC-134123]											4%	50%	75%	92%	5.942
144 nM	42 nM	CNC(=O)c1ccccc1Nc1nc(Nc2ccc(N3CCOCC3)cc2)ncc1Cl.Cl [TCMDC-134144]											0%	97%	75%	97%	6.138
967 nM	270 nM	COc1ccc(Nc2ncc(OC)c(Nc3ccccc3C(N)=O)n2)cc1N1CCN(C)CC1.O=CO [TCMDC-134149]											0%	96%	63%	100%	6.131
559 nM	86 nM	COc1ccc(Nc2ncc(Cl)c(Nc3cccnc3C(N)=O)n2)cc1N1CCN(C)CC1.Cl [TCMDC-134163]											6%	97%	77%	95%	6.6478
76 nM	129 nM	Cc1cc(Nc2ncc(Cl)c(Nc3ccccc3C(N)=O)n2)n[nH]1 [TCMDC-134170]											0%	96%	70%	98%	6.091
310 nM		COc1ccc(-c2cnc3ccc(N4CCCC4)nn23)cc1OC.O=CO [TCMDC-134177]	98	0	40	98	6.113										
145 nM	385 nM	CS(=O)(=O)Cc1ccc(Nc2nccc(N3CCCc4cc(NC(=O)Nc5cccc(C(F)(F)F)c5)ccc43)n2)cc1 [TCMDC-134309]											0%	99%	46%	100%	6.829
157 nM		COc1ccc(-c2cnn3ccc(Nc4cc(OC)c(OC)c(OC)c4)nc23)cc1OC [TCMDC-134383]	100	0	57	98	6.187										

Compound	IC50 [2]	IC50 [5]	PCT_INHB_DD2 (DD2 [1])	PCT_INHIB_3D7_PFLDH (3D7 PFLDH [3])	PCT_INHIB_HEPG2 (HepG2 cells; [9])	PCT_IHB_3D7 (P. falciparum 3D7 cells; [10])	pXC50_3D7 (P. falciparum 3D7 cells; [10])	PCT_INHB_DD2 (DD2 [4])	PCT_INHIB_HEPG2 (HepG2 cells; HepG2 cells, downloaded from ChEMBL ref F.J. Gamo et al., Nature 2010)	PCT_IHB_3D7 (P. falciparum 3D7 cells; [11])	pXC50_3D7 (P. falciparum 3D7 cells; [11])	PCT_INHIB_3D7_PFLDH (3D7 PFLDH [6])	PCT_INHIB_3D7_PFLDH (3D7 PFLDH [7])	PCT_INHB_DD2 (DD2 [8])	PCT_INHIB_HEPG2 (HepG2 cells; [12])	PCT_IHB_3D7 (P. falciparum 3D7 cells; [13])	pXC50_3D7 (P. falciparum 3D7 cells; [13])
Nc1ncc(-c2cccc(F)c2)cc1-c1nc2cc(F)ccc2[nH]1.O=C(O)C(F)(F)F [TCMDC-133132]		206 nM						88	54	100	6.757	0					
